{
  "source": "patent US9272016B2",
  "about": "“Methods to enhance RNAi oligonucleotide delivery to respiratory epithelial cells” (University of Iowa Research Foundation, priority 2012, dated 2016)",
  "type_in_all_cases": "cell-based",
  "key": {"pig HPRT": {"tested_on": "pig HPRT", "test": "Dicer-substrate siRNA silencing in PK1 cells, qPCR of HPRT mRNA", "conditions": "reverse transfection with RNAiMAX, 1 nM and 10 nM siRNA, 24 h, vs nontargeting control NC1", "description": "(§1) For airway epithelia that were either well or poorly differentiated, transfection was done mostly according to the manufacturer's protocol. In all cases, the apical surface of epithelia was washed twice with PBS before adding the transfection mixture to the apical surface. The mixture was then left on the cells for 24 h for all transfection reagents. For PK1 cells, reverse transfection was performed in a 48-well plate by first adding the siRNA-RNAiMAX reagent mixture onto the plate and then adding the dispersed cells (40,000 cells) on top of the mixture and allowing the cells to adhere and establish growth for 24 h. […]\n(§2) Total RNA was isolated using SV96 RNA isolation kit (Promega), according to manufacturer's protocol. […] One-fifteenth of the cDNA was then amplified and analyzed by Taqman assay in the 7900 Real Time PCR System (Applied Biosystems) using synthesized primer-probe pairs (IDT, Coralville, Iowa), reaction buffer and Immolase DNA polymerase (Bioline, Taunton, Mass.). […] Absolute quantification of an mRNA target sequence within an unknown sample was determined by reference to a standard curve. […]\nsiRNAs were designed and synthesized to specifically target pig HPRT (ssHPRT) and IL-8 (IL-8 1098 and IL-8 1466). […] Quantitative real-time PCR was performed to measure the extent of mRNA reduction. […]"}, "HPRT mRNA [1]": {"tested_on": "HPRT mRNA", "test": "Pretreatment of well differentiated pig airway epithelia before HPRT siRNA transfection, qPCR", "conditions": "for reduction in HPRT mRNA levels: 6 h drug pretreatment at Cmap or literature concentration, then siRNA-Transductin 24 h (data not shown); for silencing of HPRT mRNA after pretreatment: well differentiated PAE, KGF 50 ng/ml 24 h, EGTA 6 mM 30 m, LLnL 40 μM 24 hrs, then 250 nM HPRT siRNA with RNAiMAX or Transductin", "description": "(§3) For airway epithelia that were either well or poorly differentiated, transfection was done mostly according to the manufacturer's protocol. In all cases, the apical surface of epithelia was washed twice with PBS before adding the transfection mixture to the apical surface. The mixture was then left on the cells for 24 h for all transfection reagents. For PK1 cells, reverse transfection was performed in a 48-well plate by first adding the siRNA-RNAiMAX reagent mixture onto the plate and then adding the dispersed cells (40,000 cells) on top of the mixture and allowing the cells to adhere and establish growth for 24 h. Before some transfections, pretreatment of cells with various chemicals were performed: Keratinocyte Growth Factor (KGF; Prospec, East Brunswick, N.J.) 50 ng/ml added both apically and basolaterally for 24 h; EGTA 6 mM added apically for 30 m; N-Acetyl-L-Leucyl-L-Leucyl-L-Norleucinal (LLnL; ICN Biochemicals, Inc, Costa Mesa, Calif.) 40 μM added both apically and basolaterally for 24 hrs; human Epidermal Growth Factor (EGF; Sigma-Aldrich, St. Louis, Mo.) 100 μg/ml, added apically for 15 m.\n(§4) Total RNA was isolated using SV96 RNA isolation kit (Promega), according to manufacturer's protocol. Two hundred fifty ng of total RNA were reverse transcribed using oligo (dT) (Roche, Indianapolis, Ind.) and random hexamers (Invitrogen, Grand Island, N.Y.) and Superscript II (Invitrogen, Grand Island, N.Y.) according to manufacturer's instructions. One-fifteenth of the cDNA was then amplified and analyzed by Taqman assay in the 7900 Real Time PCR System (Applied Biosystems) using synthesized primer-probe pairs (IDT, Coralville, Iowa), reaction buffer and Immolase DNA polymerase (Bioline, Taunton, Mass.). The reaction mix was contained in a total volume of 10 μl and the reaction condition was an initial cycle of 95° C. for 10 min, then 40 cycles of 95° C. for 15 s and 60° C. for 1 min. All data were normalized to the internal standard, RPL4 mRNA for pig airway samples and SFRS9 mRNA for human airway samples. Absolute quantification of an mRNA target sequence within an unknown sample was determined by reference to a standard curve. The standard curve was based on the real-time PCR amplification of standard amounts of the specific gene in a control NC1 cDNA.\n(§5) Wortmannin was purchased from Sigma (St. Louis, Mo.) as a ready to use solution. […] Monensin was purchased from Sigma (St. Louis, Mo.) and was dissolved in water. For experiments with drugs, the cells were pre-treated with drugs for 6 h usually at a concentration that was used in the Cmap study (Lamb J et al., The connectivity map: Using gene-expression signatures to connect small molecules, genes, and disease. Science 2006; 313(5795):1929-1935) or in other published studies. After the drug treatment, the cells were transfected with siRNA as described before."}, "HPRT mRNA [2]": {"tested_on": "HPRT mRNA", "test": "Pretreatment of well-differentiated human airway epithelia before HPRT siRNA transfection, qPCR", "conditions": "for reduction in HPRT mRNA levels: 6 h drug pretreatment at Cmap or literature concentration, then siRNA-Transductin 24 h (data not shown); for decrease in HPRT mRNA levels: vs nontargeting controls (FIG. 5c)", "description": "as §3, §4, §5"}, "IL-8": {"tested_on": "IL-8", "test": "IL-8 siRNA transfection of poorly differentiated pig airway epithelia (2 and 5 days old), qPCR", "conditions": "for silencing of IL-8: 250 ng siRNA with Transductin, 24 h (FIG. 11a); for knockdown of IL-8: poorly differentiated pig airway cultures, siRNA 250 ng, 24 h (FIG. 9a)", "description": "as §3\nas §4, with “cDNA. PCR efficiency for all reactions was within the acceptable margin of 90-110%. All the results of the samples were presented as remaining mRNA level in comparison to the mRNA level in the control samples (NC1), which was normalized to 100%.” for “cDNA.”"}, "human airway epithelia": {"tested_on": "human airway epithelia", "test": "Confocal imaging of DIG-labeled siRNA uptake in human airway epithelia", "conditions": "cells transfected with DIG-siRNA, fluorescent images, species not stated (data not shown)", "description": "The primary human airway epithelia grown at air-liquid interface were transfected with the DIG-labeled siRNA at a concentration of 250 ng/ml after complexing with Transductin. The transfection mixture was left on the apical surface for 2 h. At the end of this period, the cells were fixed in 2% formaldehyde, permeabilized in 0.2% Triton-x-100 and blocked in 1% BSA for 1 h. The cells were then stained with mouse antibody to DIG (Roche Biochemicals) for 1 h followed by either Alexa 488 labeled goat anti-mouse secondary antibody for 1 h followed by Alexa 488 labeled rabbit […] antibody (Invitrogen) for 1 or in some cases with Alexa 564 goat anti-mouse secondary antibody for 1 h. The cells were finally stained with nuclear stain, ToPro 3 for 10 minutes. The filter, containing the cells, was removed from the culture insert by cutting the edges with razor blade and then mounted onto a slide by the use of Vectashield. The slide was visualized by confocal microscopy."}, "CFTR": {"tested_on": "CFTR", "test": "LY-294002 pretreatment of human airway cells before CFTR siRNA transfection, qPCR", "parameters": "dose or concentration left out as unconfirmed", "conditions": "siRNA with Transductin, 24 h, vs nontargeting control (FIG. 12b)", "description": "as §1, §2\n(§6) Wortmannin was purchased from Sigma (St. Louis, Mo.) as a ready to use solution. […]"}, "SIN3A": {"tested_on": "SIN3A", "test": "LY-294002 pretreatment of human airway cells before SIN3A siRNA transfection, qPCR", "parameters": "dose or concentration left out as unconfirmed", "conditions": "siRNA with Transductin, 24 h, vs nontargeting control (FIG. 12a)", "description": "as §1, §2, §6"}},
  "note": "Where a SMILES comes first, the peptide text is derived from it. [ ]: non-standard residue; d: D form. Nle = CCCC[C@H](N)C(=O)O; d = 2'-deoxy (DNA); r = 2'-OH (RNA); {P} = phosphate",
  "data": [
    {"molecule": "ssHPRT: Dicer-substrate siRNA against pig HPRT, SEQ ID NO: 1 and 2 (chain 1 CCAGUAAAGUUAUCACAUGUUCUAG; chain 2 CUAGAACAUGUGAUAACUUUACUGNGG; chemistry not fully specified)", "values": [
      {"measurement": "decrease of targeting mRNA (HPRT)", "setting": "pig HPRT", "value": "more than 90%"}
    ]},
    {"molecule": "CC(=O)O[C@H]1C(=O)[C@@]2(C)[C@H]([C@H](OC(=O)c3ccccc3)[C@]3(O)C[C@H](OC(=O)[C@H](O)[C@@H](NC(=O)c4ccccc4)c4ccccc4)C(C)=C1C3(C)C)[C@]1(OC(C)=O)CO[C@@H]1C[C@@H]2O", "note": "[paclitaxel]", "values": [
      {"measurement": "reduction in HPRT mRNA levels", "setting": "HPRT mRNA [1]; pig epithelia", "value": "no reduction"},
      {"measurement": "reduction in HPRT mRNA levels", "setting": "HPRT mRNA [2]; human epithelia", "value": "no reduction"}
    ]},
    {"molecule": "IL-8 1466: Dicer-substrate siRNA against pig IL-8, SEQ ID NO: 7 and 8 (chain 1 UGAGUGUAACUAUAGAACAUUUACA; chain 2 UGUAAAUGUUCUAUAGUUACACUCACA; chain 1: sugars from the 5' end r23 d2, 5' {P}, backbone not given here; chain 2: RNA, backbone not given here)", "values": [
      {"measurement": "silencing of IL-8", "setting": "IL-8; 2-day old pig airway epithelia", "value": "Silencing of IL-8 is seen"},
      {"measurement": "silencing of IL-8", "setting": "IL-8; 5-day old pig airway epithelia", "value": "not in 5-day old epithelia"},
      {"measurement": "knockdown of IL-8", "setting": "IL-8", "value": "Knockdown of IL-8 is seen"}
    ]},
    {"molecule": "CCCC[C@@H](C=O)NC(=O)[C@H](CC(C)C)NC(=O)[C@H](CC(C)C)NC(C)=O", "note": "[LLnL, N-Acetyl-L-Leucyl-L-Leucyl-L-Norleucinal] (Ac-Leu-Leu-[Nle]-aldehyde)", "values": [
      {"measurement": "silencing of HPRT mRNA after pretreatment", "setting": "HPRT mRNA [1]", "value": "no effect on silencing"}
    ]},
    {"molecule": "C=C1CC[C@H](O)C/C1=C/C=C1\\CCC[C@]2(C)[C@@H]([C@H](C)/C=C/[C@H](C)C(C)C)CC[C@@H]12", "note": "[ergocalciferol]", "values": [
      {"measurement": "reduction in HPRT mRNA levels", "setting": "HPRT mRNA [1]; pig epithelia", "value": "no reduction"},
      {"measurement": "reduction in HPRT mRNA levels", "setting": "HPRT mRNA [2]; human epithelia", "value": "no reduction"}
    ]},
    {"molecule": "IL-8 1098: Dicer-substrate siRNA against pig IL-8, SEQ ID NO: 5 and 6 (chain 1 GGCAAAUUGUUAAACGAACAGAATA; chain 2 UAUUCUGUUCGUUUAACAAUUUGCCAA; chain 1: sugars from the 5' end r23 d2, 5' {P}, backbone not given here; chain 2: RNA, backbone not given here)", "values": [
      {"measurement": "silencing of IL-8", "setting": "IL-8; 2-day old pig airway epithelia", "value": "Silencing of IL-8 is seen"},
      {"measurement": "silencing of IL-8", "setting": "IL-8; 5-day old pig airway epithelia", "value": "not in 5-day old epithelia"},
      {"measurement": "knockdown of IL-8", "setting": "IL-8", "value": "Knockdown of IL-8 is seen"}
    ]},
    {"molecule": "O=C(O)CN(CCOCCOCCN(CC(=O)O)CC(=O)O)CC(=O)O", "note": "[EGTA]", "values": [
      {"measurement": "silencing of HPRT mRNA after pretreatment", "setting": "HPRT mRNA [1]", "value": "did not result in silencing"}
    ]},
    {"molecule": "O=c1cc(N2CCOCC2)oc2c(-c3ccccc3)cccc12", "note": "[LY-294002, 2-morpholin-4-yl-8-phenylchromen-4-one]", "values": [
      {"measurement": "siRNA uptake", "setting": "human airway epithelia", "value": "improved siRNA uptake"},
      {"measurement": "range of silencing effects (inhibition)", "setting": "HPRT mRNA [1]; pig airway cells, several donors (data not shown)", "value": "10-20%"},
      {"measurement": "silencing of HPRT", "setting": "HPRT mRNA [1]; pig epithelia, 10 μM for 6 h apically, vs nontargeting control (FIG. 5b)", "value": "about 20%"},
      {"measurement": "range of silencing effects (inhibition)", "setting": "HPRT mRNA [2]; human airway cells, several donors (data not shown)", "value": "10-55%"},
      {"measurement": "silencing of HPRT", "setting": "HPRT mRNA [2]; human epithelia, 10 μM for 6 h apically, vs nontargeting control (FIG. 5a)", "value": "about 40%"},
      {"measurement": "reduction in mRNA levels of CFTR", "setting": "CFTR", "value": 20, "unit": "%"},
      {"measurement": "reduction in mRNA levels of SIN3A", "setting": "SIN3A", "value": 25, "unit": "%"}
    ]},
    {"molecule": "O=C1CC[C@@]2(O)[C@H]3Cc4ccc(O)c5c4[C@@]2(CCN3CC2CC2)[C@H]1O5", "note": "[naltrexone]", "values": [
      {"measurement": "reduction in HPRT mRNA levels", "setting": "HPRT mRNA [1]; pig epithelia", "value": "no reduction"},
      {"measurement": "reduction in HPRT mRNA levels", "setting": "HPRT mRNA [2]; human epithelia", "value": "no reduction"}
    ]},
    {"molecule": "COC[C@H]1OC(=O)c2coc3c2[C@@]1(C)C1=C(C3=O)[C@@H]2CCC(=O)[C@@]2(C)C[C@H]1OC(C)=O", "note": "[wortmannin]", "values": [
      {"measurement": "decrease in HPRT mRNA levels", "setting": "HPRT mRNA [2]; human airway cells, 10 nM pretreatment", "value": "about 20%"},
      {"measurement": "decrease in HPRT mRNA levels", "setting": "HPRT mRNA [2]; human airway cells, 40 nM pretreatment", "value": "~30", "unit": "%"}
    ]},
    {"molecule": "O=S(=O)(c1cccc2cnccc12)N1CCCNCC1", "note": "[fasudil]", "values": [
      {"measurement": "reduction in HPRT mRNA levels", "setting": "HPRT mRNA [1]; pig epithelia", "value": "no reduction"},
      {"measurement": "reduction in HPRT mRNA levels", "setting": "HPRT mRNA [2]; human epithelia", "value": "no reduction"}
    ]}
  ]
}
